Here are results for 30 compounds from PMC8001472, “Novel Selective IDO1 Inhibitors with Isoxazolo[5,4-d]pyrimidin-4(5H)-one Scaffold” (Pharmaceuticals, 2021).

Usually IC50 stands for the midpoint of a concentration-inhibition curve. As a reminder, the melting point is the temperature of the solid-liquid transition. Broadly, the inhibition is the change of the read-out against control, counted positive when it falls.

One data set addresses IDO1 (Homo sapiens, UniProt P14902). In words: hIDO1 inhibitory potency evaluation (fluorescence assay, NFK-derived fluorophore). Type of data set: biochemical. Details: gene encoding human IDO1 residues 6-403 His-tagged at the N-terminus; His tag (N); made in house; host or cells: Escherichia coli NiCo21. The settings on record: for IC50: recombinant hIDO1, mean ± SD of at least two independent determinations, read-out: IDO1 IC50; for inhibition at 100 µM: 100 µM compound, n.a. = not active, read-out: IDO1 % of Inhibition @ 100 µM.

The next data set deals with T1, hIDO2 (Homo sapiens, UniProt Q6ZQW0).
T1 construct: purchased Vinci-Biochem
T1 sequence (Q6ZQW0 1-407): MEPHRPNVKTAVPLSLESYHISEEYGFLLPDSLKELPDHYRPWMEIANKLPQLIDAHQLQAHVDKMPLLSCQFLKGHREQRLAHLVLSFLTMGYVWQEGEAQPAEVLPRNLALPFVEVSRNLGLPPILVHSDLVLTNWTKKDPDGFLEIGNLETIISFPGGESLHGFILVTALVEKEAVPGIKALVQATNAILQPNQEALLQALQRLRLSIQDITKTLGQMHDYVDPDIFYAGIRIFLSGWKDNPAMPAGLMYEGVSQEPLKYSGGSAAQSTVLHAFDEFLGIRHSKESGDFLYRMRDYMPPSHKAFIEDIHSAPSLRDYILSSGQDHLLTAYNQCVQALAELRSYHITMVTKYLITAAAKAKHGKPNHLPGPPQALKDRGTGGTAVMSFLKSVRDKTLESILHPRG
Description: hIDO2 inhibitory potency evaluation (fluorescence assay). The settings on record: 100 µM compound; n.a. = not active; read-out: IDO2 % of Inhibition @ 100 µM. Type of data set: biochemical. As to the method:
(§1) Additionally, to determine IDO1 selectivity, all final compounds were assayed for their inhibitory potencies towards hIDO2 and hTDO. For this purpose, two new protocols were developed based on the published fluorescence assay for hIDO1 [25]. Sodium ascorbate, methylene blue, and bovine catalase were used in the same concentrations as for hIDO1. 50 mM phosphate buffers with pH values of 7.5 and 7.0 were used for hIDO2 and hTDO, respectively, as has been already mentioned before. First, the activities of hIDO2 and hTDO were determined at four different concentrations. […] Additionally, the effect of DMSO concentration on enzyme activity was investigated. […] The optimal hIDO2 and hTDO assay concentrations of the substrate L-Trp were determined to be 4 mM and 500 μM, respectively.
Activity of the compounds on hIDO2 was determined according to the previously reported fluorescence protocol for hIDO1 [25] and reported absorbance protocols for hIDO2 [30, 36] with several modifications. Recombinant hIDO2 was purchased from Vinci-Biochem (Vinci-Biochem, Srl, Vinci, Italy), bovine catalase was purchased from Sigma-Aldrich (Sigma-Aldrich, St. Louis, MO, USA). Prior to the measurement of activity for compounds, the enzyme activity was determined and optimal assay enzyme concentration was selected. The amounts of reagents needed to perform the assay were optimized. Briefly, the reagents needed were dissolved in 50 mM potassium phosphate buffer (pH 7.5, 0.01%, v/v Tween 20), the reaction was performed in black 384-well microplates. After the addition of 1 μL of 100 mM sodium ascorbate neutralized with an equimolar amount of 1M NaOH, 1 μL of 100 μM methylene blue, 1 μL of 1 mg/mL bovine catalase, 0.5 μL of DMSO (negative control) or solution of a compound in DMSO, 5 μL of […] hIDO2 and 1.5 μL of 26.7 mM L-Trp were added and the microplate was incubated for 60 min at 37 °C. The reaction was quenched with the addition of 10 μL of 400 mM piperidine solution in MilliQ water and the formation of the examined fluorophore began following incubation at 65 °C for 20 min. The production of NFK-derived fluorophore (λEX = 400 nm, λEM = 500 nm) was measured using a microplate reader (Synergy H4; BioTek Instruments, Inc., Winooski, VT, USA) after 60 min post-incubation at room temperature. In the preliminary testing compounds were tested at 100 μM with activities determined as residual activities—RA, which were calculated to% of inhibition, presented in Table 1 and Table 2. (% of inhibition = 100% − RA). All determinations were carried out in duplicates.

The next data set concerns the target T2, hTDO (Homo sapiens, UniProt P48775).
T2 construct: purchased Vinci-Biochem
In words: hTDO inhibitory potency evaluation (fluorescence assay). Type of data set: biochemical. The settings on record: 100 µM compound; n.a. = not active; read-out: TDO % of Inhibition @ 100 µM. As to the method: as §1
The activity of the compounds on hTDO was determined according to the previously reported fluorescence protocol for hIDO1 [25] and reported absorbance protocols for hTDO [30] with several modifications. Recombinant hTDO was purchased from Vinci-Biochem (Vinci-Biochem, Vinci, Italy), bovine catalase was purchased from Sigma-Aldrich (Sigma-Aldrich, St. Louis, MO, USA). Prior to the measurement of activity for compounds, the enzyme activity was determined, and optimal assay enzyme concentration was selected. The amounts of reagents needed to perform the assay were optimized. Briefly, the reagents needed were dissolved in 50 mM potassium phosphate buffer (pH 7.0, 0.01%, v/v Tween 20), the reaction was performed in black 384-well microplates. After the addition of 1 μL of 100 mM sodium ascorbate neutralized with equimolar amount of 1 M NaOH, 1 μL of 100 μM methylene blue, 1 μL of 1 mg/mL bovine catalase, 0.5 μL of DMSO (negative control) or solution of a compound, 5 μL of 300 nM hTDO and 1.5 μL of 3.3 mM L-Trp were added and the microplate was incubated for 60 min at 37 °C. The reaction was quenched with the addition of 10 μL of 400 mM piperidine solution in MilliQ water and the formation of the examined fluorophore began following incubation at 65 °C for 20 min. The production of NFK-derived fluorophore (λEX = 400 nm, λEM = 500 nm) was measured using a microplate reader (Synergy H4; BioTek Instruments, Inc., Winooski, VT, USA) after 60 min post-incubation at room temperature. In the preliminary testing compounds were tested at 100 μM with activities determined as residual activities—RA, which were calculated to% of inhibition, presented in Table 1 and Table 2 (% of inhibition = 100% − RA). All determinations were carried out in duplicates.

Sequence of IDO1 (P14902 6-403): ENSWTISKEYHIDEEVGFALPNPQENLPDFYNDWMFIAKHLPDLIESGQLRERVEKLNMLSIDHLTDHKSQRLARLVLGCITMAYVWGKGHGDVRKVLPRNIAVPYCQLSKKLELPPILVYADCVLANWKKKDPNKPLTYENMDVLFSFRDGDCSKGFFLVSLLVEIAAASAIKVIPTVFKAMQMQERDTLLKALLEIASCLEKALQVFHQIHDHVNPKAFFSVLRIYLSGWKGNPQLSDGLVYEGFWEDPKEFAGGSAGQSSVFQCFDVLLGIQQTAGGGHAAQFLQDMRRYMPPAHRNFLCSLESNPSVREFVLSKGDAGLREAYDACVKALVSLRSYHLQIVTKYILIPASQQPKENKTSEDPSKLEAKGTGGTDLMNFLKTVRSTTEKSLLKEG
T2 sequence (P48775 whole entry): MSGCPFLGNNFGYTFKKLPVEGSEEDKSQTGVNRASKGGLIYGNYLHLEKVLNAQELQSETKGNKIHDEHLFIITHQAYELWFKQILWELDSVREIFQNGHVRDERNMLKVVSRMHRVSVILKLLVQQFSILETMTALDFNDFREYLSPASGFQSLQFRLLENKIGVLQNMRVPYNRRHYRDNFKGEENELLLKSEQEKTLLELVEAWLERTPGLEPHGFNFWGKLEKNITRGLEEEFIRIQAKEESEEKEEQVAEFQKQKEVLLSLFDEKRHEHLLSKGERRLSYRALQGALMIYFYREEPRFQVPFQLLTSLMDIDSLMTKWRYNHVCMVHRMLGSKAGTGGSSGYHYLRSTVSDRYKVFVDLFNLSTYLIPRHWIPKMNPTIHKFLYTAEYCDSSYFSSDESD

Consider `O=C(Cn1cnc2onc(-c3ccc(F)cc3)c2c1=O)N1CCCc2ccccc21` [Compound 12], for which the 50% inhibitory concentration (IC50) at IDO1 was 50 µM.

Turning to `CN(C)C(=O)Cn1cnc2onc(-c3ccc(F)cc3)c2c1=O` [Compound 13], the melting point was 215 to 217 °C. Besides, the inhibition at 100 µM on IDO1 was 21 ± 5%.

In turn, `O=C(Cn1cnc2onc(-c3ccc(F)cc3)c2c1=O)N1CCCCC1` [Compound 14] gave a melting point of 174 to 176 °C. Further, at IDO1, the inhibition at 100 µM came out at 27 ± 4%.

For `O=C(Cn1cnc2onc(-c3ccc(F)cc3)c2c1=O)NC12CC3CC(CC(C3)C1)C2` [Compound 15], the melting point is 204 to 205 °C. Also, on IDO1, the IC50 stood at 88 µM.

As for `O=C(Cn1cnc2onc(-c3ccc(F)cc3)c2c1=O)Nc1ccccc1` [Compound 16], the melting point lay in the range of 203 to 205 °C. For the same compound, on hIDO2, the inhibition at 100 µM was found to be 28 ± 9%. For the same compound, at IDO1, the “hIDO1 inhibition (in words)” value is “only weak inhibition” and the inhibition at 100 µM worked out at 15 ± 4%.

Compound `O=C(Cn1cnc2onc(-c3ccc(F)cc3)c2c1=O)Nc1ccc(F)cc1` [Compound 17] yielded a melting point of 206 to 209 °C. On IDO1, the “hIDO1 inhibition (in words)” value is listed as “only weak inhibition” and the inhibition at 100 µM is 33 ± 2%.

Turning to `COC(=O)c1ccccc1NC(=O)Cn1cnc2onc(-c3ccc(F)cc3)c2c1=O` [Compound 18], the melting point was 212 to 214 °C. Also, at hIDO2, the inhibition at 100 µM came out at 15 ± 1%. For the same compound, the inhibition at 100 µM at IDO1 turned out to be 32 ± 4%.

On to `COC(=O)c1cccc(NC(=O)Cn2cnc3onc(-c4ccc(F)cc4)c3c2=O)c1` [Compound 19], for which the IC50 on IDO1 is 55 µM.

As for `COC(=O)c1ccc(NC(=O)Cn2cnc3onc(-c4ccc(F)cc4)c3c2=O)cc1` [Compound 20], the melting point was in the range of 234 to 236 °C. Also, at IDO1, the “hIDO1 inhibition (in words)” value is “low micromolar range” and the IC50 worked out at 27 µM.

Compound `COC(=O)c1ccc(CNC(=O)Cn2cnc3onc(-c4ccc(F)cc4)c3c2=O)cc1` [Compound 21] displayed a melting point of 165 to 167 °C. Also, at IDO1, the inhibition at 100 µM worked out at 27 ± 3%.

On to `O=C(Cn1cnc2onc(-c3ccc(F)cc3)c2c1=O)Nc1cccc(C(F)(F)F)c1` [Compound 22], for which the melting point lay within 195 to 200 °C. Moreover, at IDO1, the IC50 turned out to be 55 µM.

`CS(=O)(=O)c1ccc(NC(=O)Cn2cnc3onc(-c4ccc(F)cc4)c3c2=O)cc1` [Compound 26] yielded a melting point of 234 to 238 °C. In addition, at IDO1, the “hIDO1 inhibition (in words)” value is “inactive” and the inhibition at 100 µM came out at 11 ± 2%.

As for `CN(C)c1ccc(NC(=O)Cn2cnc3onc(-c4ccc(F)cc4)c3c2=O)cc1` [Compound 28], the inhibition at 100 µM on hTDO was 18 ± 4%. Further, at IDO1, the “hIDO1 inhibition (in words)” value was “weak inhibition” and the inhibition at 100 µM worked out at 31 ± 3%.

In the case of `O=C(Cn1cnc2onc(-c3ccc(F)cc3)c2c1=O)Nc1ccc(-c2nn[nH]n2)cc1` [Compound 30], the inhibition at 100 µM at hTDO amounted to 17 ± 2%. For the same compound, the “hIDO1 inhibition (in words)” value at IDO1 is “inactive”.

As to `CC(C)c1ccc(NC(=O)Cn2cnc3onc(-c4ccc(F)cc4)c3c2=O)cc1` [Compound 31], the melting point was in the range of 198 to 202 °C. In addition, the 50% inhibitory concentration (IC50) on IDO1 came to 87 µM.

In the case of `O=C(Cn1cnc2onc(-c3ccc(F)cc3)c2c1=O)Nc1ccc(C2CCCCC2)cc1` [Compound 32], on IDO1, the “hIDO1 inhibition (in words)” value is “low micromolar range” and the IC50 stood at 22 µM.

For `COc1cc(NC(=O)Cn2cnc3onc(-c4ccc(F)cc4)c3c2=O)cc(OC)c1OC` [Compound 34], the melting point fell in the range of 219 to 221 °C. For the same compound, the “hIDO1 inhibition (in words)” value on IDO1 was “inactive”.

In turn, `O=C(Cn1cnc2onc(-c3ccc(F)cc3)c2c1=O)Nc1cccc2ccccc12` [Compound 35] had a melting point of 210 to 215 °C. The inhibition at 100 µM on IDO1 came out at 20 ± 6%.

For `O=C(Cn1cnc2onc(-c3ccc(F)cc3)c2c1=O)Nc1ccc2ccccc2c1` [Compound 36], the melting point is 180 to 184 °C. In addition, the inhibition at 100 µM at hIDO2 was 13 ± 2%. For the same compound, at IDO1, the 50% inhibitory concentration (IC50) was found to be 46 µM.

On to `O=C(Cn1cnc2onc(-c3ccc(F)cc3)c2c1=O)N1CCc2ccccc2C1` [Compound 37], for which the melting point was in the range of 201 to 203 °C. In addition, on IDO1, the inhibition at 100 µM came out at 17 ± 5%.

As for `O=C(Cn1cnc2onc(-c3ccccc3)c2c1=O)N1CCCc2ccccc21` [Compound 38], at hIDO2, the inhibition at 100 µM is 16 ± 4%.

Turning to `O=C(Cn1cnc2onc(-c3ccccc3)c2c1=O)Nc1ccc([N+](=O)[O-])cc1` [Compound 40], the melting point lay in the range of 197 to 199 °C. Moreover, at hIDO2, the inhibition at 100 µM came to 16 ± 5%.

In the case of `O=C(Cn1cnc2onc(-c3ccc(Br)cc3)c2c1=O)N1CCCc2ccccc21` [Compound 41], at IDO1, the inhibition at 100 µM was 32 ± 1%.

Take `COc1ccc(-c2noc3ncn(CC(=O)N4CCCc5ccccc54)c(=O)c23)cc1` [Compound 42]: the melting point lay in the range of 171 to 178 °C. Besides, the inhibition at 100 µM at IDO1 was 15 ± 4%.

The compound `O=C(Cn1cnc2onc(-c3ccc(OCc4ccccc4)cc3)c2c1=O)N1CCCc2ccccc21` [Compound 46] registered a melting point of 200 to 202 °C. At IDO1, the inhibition at 100 µM worked out at 14 ± 3%.

For the compound `O=C(Cn1cnc2onc(-c3ccc(F)c(F)c3)c2c1=O)N1CCCc2ccccc21` [Compound 47], at IDO1, the inhibition at 100 µM was 34 ± 1%.

`O=C(Cn1cnc2onc(-c3cccs3)c2c1=O)N1CCCc2ccccc21` [Compound 50] registered a melting point of 202 to 205 °C.

In the case of `O=C(Cn1cnc2onc(-c3cccs3)c2c1=O)Nc1ccc([N+](=O)[O-])cc1` [Compound 51], on IDO1, the IC50 worked out at 53 µM.

Regarding `O=C(Cn1cnc2onc(-c3ccsc3)c2c1=O)N1CCCc2ccccc21` [Compound 52], the inhibition at 100 µM on IDO1 is 23 ± 5%.

Compound `O=C(Cn1cnc2onc(-c3ccsc3)c2c1=O)Nc1ccc([N+](=O)[O-])cc1` [Compound 53] had a melting point of 231 to 233 °C. Also, at hIDO2, the inhibition at 100 µM was 21 ± 6%. The half-inhibitory concentration (IC50) at IDO1 came out at 40 µM.
